Experimental data as given in patent US11161843B2, “Fused heterocyclic compound and composition containing same” (Sumitomo Chemical Company, Limited, priority 2017, dated 2021).

What was measured:
[1] = test system: brown planthopper (Nilaparvata lugens); experiment: Test Example 3: spray on rice seedling, brown planthopper larvae; format: in vivo; settings: 500 ppm, spray 10 mL/seedling, 3rd instar larvae, counted after 6 days
Procedure: The test compounds were made to a formulation according to the method described in the Formulation Example 5, and thereto was added water containing 0.03 v/v % of a spreader to prepare a diluted solution containing a prescribed concentration of the test compound.
Rice (Oryza sativa) seedling (on the developmental stage of the second true leaf) was planted in a container, and the diluted solutions were sprayed into the seedling in a ratio of 10 mL/seedling. Thereafter, 20 of 3rd instar larvae of brown planthopper (Nilaparvata lugens) were released onto the rice leaves. After 6 days, the number of the surviving insects was examined, and the mortality was calculated by the following equation. Mortality (%)={1−the number of the surviving insects/20}×100

cotton aphid = experiment: Test Example 2: irrigation into plant foot of cucumber seedling, cotton aphid inoculated after 7 days; format: in vivo, Aphis gossypii; settings: 1,000 ppm, 5 mL/seedling irrigated into plant foot, aphids inoculated after 7 days, counted after additional 6 days
Procedure: The test compounds were made to a formulation according to the method described in the Formulation Example 5, and thereto was added water to prepare a diluted solution containing a prescribed concentration of the test compound. Cucumber seedling (on the developmental stage of the second true leaf) was planted in a container, and the diluted solutions in the ratio on 5 mL/seedling were irrigated into the plant foot. After 7 days, approximately 30 of cotton aphid (all stages of life) were inoculated onto the cucumber leaves. After additional 6 days, the number of the surviving insects was examined, and the controlling value was calculated by the following equation. Controlling value (%)={1−(Cb×Tai)/(Cai×Tb)}*100 wherein the symbols in the formula represent the following descriptions. Cb: Number of the test insects in untreated group; Cai: Number of the surviving insects at the time of the investigation in untreated group; Tb: Number of the test insects in treated group; Tai: Number of the surviving insects at the time of the investigation in treated group; Here the “untreated group” represents a group where a similar treatment procedure to that of the treated group except not using the test compound is done.

CCS(=O)(=O)c1ccc2nncn2c1-c1ccc(OCC(F)(F)C(F)(F)F)cn1 [compound 4]
controlling value [1]: ≥ 90% | controlling value (cotton aphid): ≥ 90%
